Assay results taken from patent US20240299385A1 (ReWind Therapeutics NV, priority 2021, published 2024).
pIC50: −log10 of the molar value.

Molecular target: T1, human GPR17 receptor (Homo sapiens, UniProt Q13304)
T1 construct: host or cells: HEK-293
Assay: Calcium mobilization functional assay (Fluo-8, FLIPR TETRA) in HEK-293 hGPR17 (Gα-q assay)
Format: cell-based
Settings: antagonism of MDL29,951 (~EC80) induced Ca2+ signal; cell line (HEK-293 hGPR17 or HEK-293 Suchi5 hGPR17) not given
How it was run: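 Fluo-8-loaded HEK-293 hGPR17 cells (60 min dye loading, room temperature) were preincubated with compound for twenty minutes, then challenged with agonist MDL29,951 at ~EC80, 500 nM. Intracellular calcium release via Gα-q was recorded as FLIPR fluorescence for a further 2 minutes; compounds tested in duplicate.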

T1 sequence (Q13304 whole entry): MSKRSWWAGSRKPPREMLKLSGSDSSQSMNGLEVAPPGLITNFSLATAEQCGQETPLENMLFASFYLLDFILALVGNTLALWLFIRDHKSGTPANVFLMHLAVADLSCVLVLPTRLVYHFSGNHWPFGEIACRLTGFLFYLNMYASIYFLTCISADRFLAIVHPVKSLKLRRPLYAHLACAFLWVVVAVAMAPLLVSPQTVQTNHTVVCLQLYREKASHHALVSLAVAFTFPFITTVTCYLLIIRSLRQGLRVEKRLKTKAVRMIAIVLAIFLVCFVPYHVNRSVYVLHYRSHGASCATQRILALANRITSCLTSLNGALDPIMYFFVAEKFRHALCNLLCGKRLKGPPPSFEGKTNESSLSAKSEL

pIC50	SMILES
5.30 to 6.30	O=S(=O)(Nc1nc(F)c(OCCF)cc1F)c1c[nH]cc1Cc1ccccc1 [Cpd 501, 4-benzyl-N-[3,6-difluoro-5-(2-fluoroethoxy)pyridin-2-yl]-1H-pyrrole-3-sulfonamide]
> 6.30	N#Cc1ccc(NS(=O)(=O)c2c[nH]c(-c3cccc(F)n3)c2)c(F)c1 [Cpd 502, N-(4-cyano-2-fluorophenyl)-5-(6-fluoropyridin-2-yl)-1H-pyrrole-3-sulfonamide]
5.30 to 6.30	Cc1ccnc(-c2cc(S(=O)(=O)Nc3ccc(C#N)cc3F)c[nH]2)c1 [Cpd 503, N-(4-cyano-2-fluorophenyl)-5-(4-methylpyridin-2-yl)-1H-pyrrole-3-sulfonamide]
> 6.30	Cc1cccc(-c2cc(S(=O)(=O)Nc3ccc(C#N)cc3F)c[nH]2)n1 [Cpd 504, N-(4-cyano-2-fluorophenyl)-5-(6-methylpyridin-2-yl)-1H-pyrrole-3-sulfonamide]
4.30 to 5.30	O=C1C=C(c2cc(S(=O)(=O)Nc3cc(F)c(C(F)(F)F)cc3F)c[nH]2)CC1 [Cpd 505, N-(2,5-difluoro-4-(trifluoromethyl)phenyl)-5-(3-oxocyclopent-1-en-1-yl)-1H-pyrrole-3-sulfonamide]
5.30 to 6.30	CN(C)c1ccccc1-c1cc(S(=O)(=O)Nc2ccc(C#N)cc2F)c[nH]1 [Cpd 506, N-(4-cyano-2-fluorophenyl)-5-[2-(dimethylamino)phenyl]-1H-pyrrole-3-sulfonamide]
5.30 to 6.30	N#Cc1ccc(NS(=O)(=O)c2c[nH]c(-c3cc(Cl)c(F)cc3F)c2)c(F)c1 [Cpd 507, 5-(5-chloro-2,4-difluorophenyl)-N-(4-cyano-2-fluorophenyl)-1H-pyrrole-3-sulfonamide]
> 6.30	N#Cc1cc(F)c(NS(=O)(=O)c2c[nH]c(-c3cc(Cl)ccc3F)c2)cc1F [Cpd 508, 5-(5-chloro-2-fluorophenyl)-N-(4-cyano-2,5-difluorophenyl)-1H-pyrrole-3-sulfonamide]
> 6.30	N#Cc1cc(F)c(NS(=O)(=O)c2c[nH]c(-c3ccc(F)cc3)c2)cc1F [Cpd 509, N-(4-cyano-2,5-difluorophenyl)-5-(4-fluorophenyl)-1H-pyrrole-3-sulfonamide]
> 6.30	N#Cc1cc(F)c(NS(=O)(=O)c2c[nH]c(-c3ccc(F)cc3F)c2)cc1F [Cpd 510, N-(4-cyano-2,5-difluorophenyl)-5-(2,4-difluorophenyl)-1H-pyrrole-3-sulfonamide]
> 6.30	Cc1cc(NS(=O)(=O)c2c[nH]c(-c3ccccc3F)c2)c(F)cc1C#N [Cpd 511, N-(4-cyano-2-fluoro-5-methylphenyl)-5-(2-fluorophenyl)-1H-pyrrole-3-sulfonamide]
> 6.30	Cc1cc(NS(=O)(=O)c2c[nH]c(-c3cc(Cl)ccc3F)c2)c(F)cc1C#N [Cpd 512, 5-(5-chloro-2-fluorophenyl)-N-(4-cyano-2-fluoro-5-methylphenyl)-1H-pyrrole-3-sulfonamide]
5.30 to 6.30	Cc1cc(NS(=O)(=O)c2c[nH]c(-c3ccc(F)cc3)c2)c(F)cc1C#N [Cpd 513, N-(4-cyano-2-fluoro-5-methylphenyl)-5-(4-fluorophenyl)-1H-pyrrole-3-sulfonamide]
5.30 to 6.30	Cc1cc(NS(=O)(=O)c2c[nH]c(-c3ccc(F)cc3F)c2)c(F)cc1C#N [Cpd 514, N-(4-cyano-2-fluoro-5-methylphenyl)-5-(2,4-difluorophenyl)-1H-pyrrole-3-sulfonamide]
> 6.30	O=S(=O)(Nc1cc(F)c(OC(F)F)cc1F)c1c[nH]c(-c2cccc(Cl)n2)c1 [Cpd 515, 5-(6-chloropyridin-2-yl)-N-[4-(difluoromethoxy)-2,5-difluorophenyl]-1H-pyrrole-3-sulfonamide]
> 6.30	O=S(=O)(Nc1cc(F)c(OC(F)F)cc1F)c1c[nH]c(-c2cccc(Br)n2)c1 [Cpd 516, 5-(6-bromopyridin-2-yl)-N-[4-(difluoromethoxy)-2,5-difluorophenyl]-1H-pyrrole-3-sulfonamide]
